Source: ChEMBL document CHEMBL4622963, “Optimization of Nicotinamides as Potent and Selective IRAK4 Inhibitors with Efficacy in a Murine Model of Psoriasis” (ACS Med Chem Lett, 2020)

Assays:
Mus musculus [1] = test: Protection against imiquimod-induced psoriasis in C57BL/6 mouse assessed as inhibition of skin scaling at 3 mg/kg, po dosed via gavage once daily and measured on day 6 relative to control; format: functional; details: C57BL/6, po, 144 h
Mus musculus [2] = test: Protection against imiquimod-induced psoriasis in C57BL/6 mouse assessed as inhibition of skin erythema level at 3 mg/kg, po dosed via gavage once daily and measured on day 6 relative to control; format: functional; details: C57BL/6, po, 144 h

C[C@@H]1C[C@H]2[C@@H]3CCC4=CC(=O)C=C[C@]4(C)[C@@]3(F)[C@@H](O)C[C@]2(C)[C@@]1(O)C(=O)CO [DEXAMETHASONE]
inhibition in vivo at 3 mg/kg (Mus musculus [1]): 45% | inhibition in vivo at 3 mg/kg (Mus musculus [2]): 37%
